Data from PubChem BioAssay (NCI).
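Compound exposure: 48 hours, 5 concentrations, 96-well plates. TGI: concentration producing complete growth inhibition.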

Experiments:
Test in all cases: inhibition of tumour cell growth, NCI panel, 48 h
[1] = system: 786-0 renal
[2] = system: A498 renal
[3] = system: A549 NSCLC
[4] = system: ACHN renal
[5] = system: BT-549 breast
[6] = system: CAKI-1 renal
[7] = system: CCRF-CEM leukemia
[8] = system: COLO 205 colon
[9] = system: DU-145 prostate
[10] = system: EKVX NSCLC
[11] = system: HCT-116 colon
[12] = system: HCT-15 colon
[13] = system: HL-60(TB) leukemia
[14] = system: HOP-62 NSCLC
[15] = system: HOP-92 NSCLC
[16] = system: HS 578T breast
[17] = system: HT29 colon
[18] = system: IGROV1 ovarian
[19] = system: K-562 leukemia
[20] = system: KM12 colon
[21] = system: LOX IMVI melanoma
[22] = system: M14 melanoma
[23] = system: MALME-3M melanoma
[24] = system: MCF7 breast
[25] = system: MDA-MB-231 breast
[26] = system: MDA-MB-435
[27] = system: MDA-N
[28] = system: MOLT-4 leukemia
[29] = system: NCI-H226 lung
[30] = system: NCI-H23 lung
[31] = system: NCI-H460 lung
[32] = system: NCI-H522 lung
[33] = system: NCI/ADR-RES ovarian
[34] = system: OVCAR-3 ovarian
[35] = system: OVCAR-4 ovarian
[36] = system: OVCAR-5 ovarian
[37] = system: OVCAR-8 ovarian
[38] = system: PC-3 prostate
[39] = system: RPMI-8226 leukemia
[40] = system: RXF 393 renal
[41] = system: SF-268 CNS
[42] = system: SF-295 CNS
[43] = system: SF-539 CNS
[44] = system: SK-MEL-2 melanoma
[45] = system: SK-MEL-28 melanoma
[46] = system: SK-MEL-5 melanoma
[47] = system: SK-OV-3 ovarian
[48] = system: SN12C renal
[49] = system: SNB-19 CNS
[50] = system: SNB-75 CNS
[51] = system: SR leukemia
[52] = system: T-47D breast
[53] = system: TK-10 renal
[54] = system: U251 CNS
[55] = system: UACC-257 melanoma
[56] = system: UO-31 renal
[57] = system: SW-620 colon
[58] = system: UACC-62 melanoma

C(=N\c1nc2cc3sc(/N=C/c4cccs4)nc3cc2s1)/c1cccs1
TGI [1]: > 100 µM
TGI [2]: > 100 µM
TGI [3]: > 100 µM
TGI [4]: > 100 µM
TGI [5]: > 100 µM
TGI [6]: > 100 µM
TGI [7]: > 100 µM
TGI [8]: 12.4 µM
TGI [9]: > 100 µM
TGI [10]: > 100 µM
TGI [11]: > 100 µM
TGI [12]: > 100 µM
TGI [13]: > 100 µM
TGI [14]: > 100 µM
TGI [15]: > 100 µM
TGI [16]: > 100 µM
TGI [17]: > 100 µM
TGI [18]: > 100 µM
TGI [19]: > 100 µM
TGI [20]: > 100 µM
TGI [21]: > 100 µM
TGI [22]: > 100 µM
TGI [23]: > 100 µM
TGI [24]: > 100 µM
TGI [25]: > 100 µM
TGI [26]: > 100 µM
TGI [27]: > 100 µM
TGI [28]: > 100 µM
TGI [29]: 88.1 µM
TGI [30]: > 100 µM
TGI [31]: > 100 µM
TGI [32]: > 100 µM
TGI [33]: > 100 µM
TGI [34]: > 100 µM
TGI [35]: > 100 µM
TGI [36]: > 100 µM
TGI [37]: > 100 µM
TGI [38]: > 100 µM
TGI [39]: > 100 µM
TGI [40]: > 100 µM
TGI [41]: > 100 µM
TGI [42]: > 100 µM
TGI [43]: > 100 µM
TGI [44]: > 100 µM
TGI [45]: > 100 µM
TGI [46]: > 100 µM
TGI [47]: > 100 µM
TGI [48]: > 100 µM
TGI [49]: > 100 µM
TGI [50]: > 100 µM
TGI [51]: > 100 µM
TGI [52]: > 100 µM
TGI [53]: > 100 µM
TGI [54]: > 100 µM
TGI [55]: > 100 µM
TGI [56]: > 100 µM

Oc1c(CN2CCOCC2)ccc(CN2CCOCC2)c1O
TGI [1]: > 100 µM
TGI [2]: > 100 µM
TGI [3]: > 100 µM
TGI [4]: > 100 µM
TGI [5]: > 100 µM
TGI [6]: > 100 µM
TGI [7]: 12.9 µM
TGI [8]: > 100 µM
TGI [9]: 83 µM
TGI [10]: > 100 µM
TGI [11]: > 100 µM
TGI [12]: > 100 µM
TGI [13]: 27.2 µM
TGI [14]: > 100 µM
TGI [15]: > 100 µM
TGI [16]: > 100 µM
TGI [17]: > 100 µM
TGI [18]: > 100 µM
TGI [19]: > 100 µM
TGI [20]: > 100 µM
TGI [21]: > 100 µM
TGI [22]: 84 µM
TGI [23]: > 100 µM
TGI [24]: > 100 µM
TGI [25]: > 100 µM
TGI [26]: > 100 µM
TGI [27]: > 100 µM
TGI [28]: > 100 µM
TGI [29]: 88.9 µM
TGI [30]: > 100 µM
TGI [31]: 82.8 µM
TGI [32]: > 100 µM
TGI [33]: > 100 µM
TGI [34]: 66.3 µM
TGI [35]: > 100 µM
TGI [36]: > 100 µM
TGI [37]: > 100 µM
TGI [38]: > 100 µM
TGI [39]: > 100 µM
TGI [40]: > 100 µM
TGI [41]: > 100 µM
TGI [42]: 96.3 µM
TGI [43]: > 100 µM
TGI [44]: 94.6 µM
TGI [45]: > 100 µM
TGI [46]: 67 µM
TGI [47]: > 100 µM
TGI [48]: 88.4 µM
TGI [49]: > 100 µM
TGI [50]: 75.3 µM
TGI [51]: > 100 µM
TGI [57]: > 100 µM
TGI [52]: > 100 µM
TGI [53]: > 100 µM
TGI [54]: > 100 µM
TGI [55]: 88.7 µM
TGI [58]: 61.2 µM
TGI [56]: 72.2 µM
